Results: patent publication US8119660B2, “Small-molecule inhibitors of the androgen receptor” (The Regents of the University of California, priority 2007, dated 2012)
Changes are numbered by the printed parent chain. Entries after “also recorded” stand apart in the source; their conditions may differ. Structures can show the parent of a compound that is named as a salt.

What was measured:
LNCaP cells = assay: Cell proliferation (DNA content, DAPI), LNCaP; type: cell-based, human; details: 3 nM DHT, seven days, PP 100 nM, HH 100 nM, BiC 1 μM, hydrochloride
Excerpt: (§1) LN-AR cells were created by retroviral infection of a high-expressing AR vector into LNCaP cells, and proliferate independent of androgen in cell culture, unlike their parental line (Chen, C. D., et al., Molecular determinants of resistance to antiandrogen therapy. Nat Med, 2004. 10(1): p. 33-9). HEK293 cells were used as a control. Cells were transferred to charcoal-stripped media two days before they were split and plated in quadruplicate at a density of approximately 20,000 cells/well in 48-well plates. […] Media were changed every day, using a single preparation to ensure consistent compound concentrations. Proliferation was determined by measuring the DNA content of the cells in each well. Each day, the cells in four wells were fixed in 100% cold methanol, followed by staining for 5 min at RT with 0.2 ng/mL 4′,6-diamidino-2-phenylindole (DAPI) in PBS. The cells were washed once in PBS, then read on a fluorescence plate reader using 365/439 excitation/emission wavelengths. LAPC4 and LNCaP cells proliferated to a much greater degree in the presence of DHT, while LN-AR cells proliferated in the presence and absence of DHT.

[1] = target: T1, endogenous wild-type AR, LAPC4 cells (Homo sapiens, UniProt P10275); assay: PSA-luciferase reporter assay in LAPC4 cells with DHT; type: cell-based; details: 3 nM DHT
T1 construct: that each express endogenous AR; endogenous in cells; host or cells: LAPC4
T1 sequence (P10275 1-920): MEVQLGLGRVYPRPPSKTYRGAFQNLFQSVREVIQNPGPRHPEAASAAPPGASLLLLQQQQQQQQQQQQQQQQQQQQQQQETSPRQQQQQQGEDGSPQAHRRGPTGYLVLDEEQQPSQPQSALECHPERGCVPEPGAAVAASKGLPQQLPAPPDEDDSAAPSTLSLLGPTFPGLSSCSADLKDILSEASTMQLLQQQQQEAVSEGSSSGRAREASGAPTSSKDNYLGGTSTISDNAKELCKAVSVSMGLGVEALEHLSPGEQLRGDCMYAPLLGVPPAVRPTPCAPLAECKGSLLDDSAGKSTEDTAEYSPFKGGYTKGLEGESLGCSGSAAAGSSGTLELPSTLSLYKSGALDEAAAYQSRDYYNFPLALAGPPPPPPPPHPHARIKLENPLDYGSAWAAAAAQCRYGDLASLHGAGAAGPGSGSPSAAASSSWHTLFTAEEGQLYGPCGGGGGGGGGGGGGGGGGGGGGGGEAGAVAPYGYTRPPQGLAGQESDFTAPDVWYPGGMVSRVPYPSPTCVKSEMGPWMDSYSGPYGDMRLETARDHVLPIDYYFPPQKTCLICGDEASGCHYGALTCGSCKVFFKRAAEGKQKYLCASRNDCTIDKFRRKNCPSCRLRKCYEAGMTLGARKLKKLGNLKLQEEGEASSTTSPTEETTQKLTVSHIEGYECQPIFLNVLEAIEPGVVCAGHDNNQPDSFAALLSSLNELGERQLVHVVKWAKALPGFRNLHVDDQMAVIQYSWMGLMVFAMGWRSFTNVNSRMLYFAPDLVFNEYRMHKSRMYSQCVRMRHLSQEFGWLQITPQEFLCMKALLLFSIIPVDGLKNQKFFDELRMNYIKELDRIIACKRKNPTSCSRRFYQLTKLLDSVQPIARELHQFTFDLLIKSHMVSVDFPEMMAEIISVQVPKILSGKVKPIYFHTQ
Experimental: (§2) Cells were transfected with two reporter plasmids, a PSA-luciferase construct (androgen responsive), and an SV40-renilla luciferase construct as an internal control. The following day, the cells were split and drugs added in the presence of 3 nM DHT. Luciferase production was measured the following day (Dual luciferase assay kit, Promega).
(§3) Synergism can be defined as a combination index of less than one, using the non-exclusive assumption described by Chou et al. (Chou, T. C. and P. Talalay, Quantitative analysis of dose-effect relationships: the combined effects of multiple drugs or enzyme inhibitors. Adv Enzyme Regul, 1984. 22: p. 27-55).

[2] = target: T2, endogenous AR with a mutation (T877A), LNCaP cells (Homo sapiens, UniProt P10275, T878A); assay: PSA-luciferase reporter assay in LNCaP cells with DHT; type: cell-based
T2 construct: that each express endogenous AR; endogenous in cells; host or cells: LNCaP
T2 sequence (P10275 1-920 T878A): T1 sequence (P10275 1-920) with T878A
Experimental: as §2, §3

LAPC4 cells = assay: Cell proliferation (DNA content, DAPI), LAPC4; type: cell-based, human; details: LAPC4, 3 nM DHT, seven days; PP 100 nM, HH 100 nM, BiC 1 μM
Excerpt: as §1

Cc1nccc2c1[nH]c1cc(O)ccc12 [HH, harmol hydrochloride]
Inhibition of cell growth (LNCaP cells): inhibited significantly; also recorded: exhibited growth-inhibitory properties
IC50 [1]: 106 nM
IC50 ([2]; LNCaP cells, 3 nM DHT): 127 nM
Mode of antagonism: effect on DHT dose-response of PSA-luciferase ([2]; LNCaP, DHT titrated, moderate dose of each inhibitor, hydrochloride): inhibited maximal DHT-induced activation; also recorded: pattern consistent with a non-competitive antagonist
Inhibition of cell growth (LAPC4 cells): not effective
